Results from patent publication US7053118B1, “Lactone compounds and methods of use” (Harbor Branch Oceanographic Institution, Inc., priority 2003, dated 2006).

What was measured:
Format in all cases: cell-based
[1] = tested on: P388 murine leukemia cell line; assay: Antiproliferative MTT assay, P388 cell line; conditions: P-388 cells, 48-h exposure
Description: (§1) Extracts and compounds were analyzed as to their effects on proliferation of A549 human adenocarcinoma, PANC-1 human pancreatic and P388 murine leukemia cell lines. P388 cells were obtained from Dr. R. Camalier, National Cancer Institute, Bethesda, Md., and A549 and PANC-1 cells were obtained from American Type Culture Collection, Rockville, Md. All cell lines were maintained in Roswell Park Memorial Institute (RPMI) medium 1640 supplemented with 10% fetal bovine serum. All cell lines are cultured in plastic tissue culture flasks and kept in an incubator at 37° C. in humidified air containing 5% CO2. Prior to testing, antibiotic-free stock cultures of each of the cell lines were subcultured to 10^6 cells/ml by dilution in fresh growth medium at 2 to 3 day intervals.
To assess the antiproliferative effects of extracts and compounds against the P388 cell line, 200 μl cultures (96-well tissue culture plates, Nunc, Denmark) are established at 1×10^5 cells/ml in drug-free medium or medium containing the test agent at 10.0, 1.0, 0.10 and 0.010 μg/ml. Solvent for all dilutions ethanol. All experimental cultures are initiated in medium containing Gentamycin sulfate (50 μg/ml; Schering Corporation, Kenilworth, N.J.). […]

[2] = tested on: A549 human adenocarcinoma cell line; assay: Antiproliferative MTT assay, A549 cell line; conditions: A549 cells, additional 48 hr exposure prior to MTT addition
Description: as §1
(§2) To assess the antiproliferative effects of extracts and compounds against the P388 cell line, 200 μl cultures (96-well tissue culture plates, Nunc, Denmark) are established at 1×10^5 cells/ml in drug-free medium or medium containing the test agent at 10.0, 1.0, 0.10 and 0.010 μg/ml. Solvent for all dilutions ethanol. […]
(§3) Similar procedures are utilized for A549 and PANC-1 cells which require an additional 48 hr exposure prior to MTT addition. Results are expressed as percent inhibition compared to the negative (no drug) control. […]

[3] = tested on: PANC-1 human pancreatic cell line; assay: Antiproliferative MTT assay, PANC-1 cell line; conditions: PANC-1 cells, additional 48 hr exposure prior to MTT addition
Description: as §1, §2, §3

C=C1C[C@@](C)(/C=C/C=C/CCCCCCCC)OC1=O [plakolide A] was tested, and the “Activity (IC50 μg/ml)” value [1] was 1.09 µg/mL, the “Activity (IC50 μg/ml)” value [2] was 5.0 µg/mL and the “Activity (IC50 μg/ml)” value [3] was 3.78 µg/mL.
